Results: patent publication US20120029071A1, “COMPOSITIONS AND METHODS FOR TREATING OR PREVENTING RADIATION INJURY” (THE JOHNS HOPKINS UNIVERSITY, priority 2008, published 2012)
“Also recorded” adds a separate entry of the source.

Key:
Nrf2+/+ mice = experiment: TBI induced mortality in Nrf2+/+ mice after CDDO-Me treatment; assay type: in vivo; settings: for mortality: survival monitored for 30 days, vehicle 100% mortality
Procedure: (§1) FIG. 2 includes three graphs, which provide proof of concept studies with Nrf2 activator, showing quantitation of TBI induced Mortality in Nrf2−/− mice and Nrf2+/+ mice after CDDO-me (small molecule Nrf2 activator) or vehicle treatment. One hour and 24 hours after TBI mice (n=10/gp) mice were treated with CDDO-Me. Survival was monitored for 30 days.
(§2) To determine if pharmacological activation of Nrf2 improves survival following TBI, we treated Nrf2+/+ and Nrf2−/− with the small molecule, CDDO-Me, a potent Nrf2 activator 1 hour and 24 hours after TBI.

Nrf2−/− mice = experiment: TBI induced mortality in Nrf2-/- mice after CDDO-Me treatment; assay type: in vivo; settings: treated 1 hour post-TBI
Procedure: as §1, §2

mice = experiment: TBI induced gastrointestinal (GI) injury: villi morphology and crypt cell proliferation (BrdU); assay type: in vivo; settings: treatment post 1 h TBI, day 9 post TBI, vs vehicle; for mucosal injury (length of villi): histopathology
Procedure: FIGS. 3A-3D show TBI induced GI injury in Nrf2+/+ and Nrf2−/− mice after CDDO-me or vehicle treatment. One hour after TBI […] mice (n=10/gp) mice were treated with CDDO-Me. GI injury was assessed by mucosal damage by histopathalogical analysis (FIGS. 3A and 3B) and crypt cell proliferation by BrdU immunohistochemistry staining (FIGS. 3C and 3D).
To analyze the GI injury, villi morphology and proliferation of crypt cells were quantified by immunohistochemistry and BrdU labeling on day 9 post TBI.

[1] = tested on: hematopoietic stem cells and progenitors cell; experiment: TBI induced hematopoietic injury, bone marrow clonogenic assay; assay type: in vivo, mice; settings: bone marrow clonogenic assay after TBI, vs vehicle
Procedure: FIG. 4 is a graph quantitating TBI induced HP injury in mice after CDDO-me or vehicle treatment as assessed by bone marrow clonogenic assay.
To assess the protective effect of CDDO-Me on hematopoietic injury, bone marrow was analyzed in a clonogenic assay.

[2] = tested on: GCLC, GCLm and NQO1 genes; experiment: Expression of Nrf2 regulated antioxidant genes in multiple tissues post TBI by quantitative RT-PCR; assay type: in vivo, mice; settings: small intestine, colon, lung, liver, kidney, salivary gland and other organs
Text: FIG. 5 is a table that quantifies Nrf2 regulated antioxidant defenses in multiple tissues of mice treated with CDDO-Me post TBI.

## COC(=O)[C@]12CCC(C)(C)C[C@H]1[C@H]1C(=O)C=C3[C@@]4(C)C=C(C#N)C(=O)C(C)(C)[C@@H]4CC[C@@]3(C)[C@]1(C)CC2 [CDDO-Me]
Nrf2+/+ mice; treated 1 hour and 24 hours after TBI, vs vehicle
  TBI induced mortality: markedly inhibited TBI induced mortality
Nrf2+/+ mice; treated 1 hour post-TBI
  mortality: 0%
Nrf2+/+ mice; treated 24 hours post-TBI
  mortality: 25%
Nrf2−/− mice
  survival following TBI: failed to improve survival
mice; BrdU immunohistochemistry
  crypt cell proliferation (BrdU staining): significantly mitigated loss of crypt cells; also recorded: marked improvement in crypt cell proliferation
mice
  mucosal injury (length of villi): significantly mitigated reduction in gastrointestinal villi
mice; listed as CDDO-me
  mucosal injury (length of villi): markedly ameliorated mucosal injury
[1]
  protection of hematopoietic stem cells and progenitors (granulocyte/macrophage colony forming cells): markedly protected hematopoietic stem cells and progenitors cell
[2]
  expression of antioxidant genes (GCLC, GCLm, NQO1): markedly upregulated antioxidant genes
